Test results from US12421221B2 (ONCOBIX CO., LTD., priority 2019, dated 2025).

Key:
[1] = target: T1, EGFR mutation Ba/F3 stable cell line DEL19/T790M/C797S (Homo sapiens, UniProt P00533, DEL746-750/T790M/C797S, cells depend on it); experiment: Cancer cell growth inhibitory effect (MTT assay); type: cell-based, Murine; details: 72 hours, read-out: DEL19/T790M/C797S cell growth inhibition IC50
T1 construct: "del19, #32062; del19+T790M, #32072)
Protocol: (§1) With respect to the compounds obtained in Examples, a growth inhibitory effect of ALK mutation cancer cells and EGFR mutation Ba/F3 cancer cell lines was measured. The anti-cancer efficacy activity measurement was performed by the following method using an ALK mutation cell line such as H3122 (EML4-ALK v1), H2228 (EML4-ALK v3), etc. and an EGFR mutation Ba/F3 stable cell line.
Ba/F3 stable cell line construction: Murine lymphoid cells performed IL-3 dependent growth. […] A stable cell line was constructed using this principle even without puromycin selection. Briefly, each construction was infected on Ba/F3, and after 48 hours, IL-3 was removed by media exchange and cells were cultured. However, in the case of the wild type EGFR, puromycin selection was performed.
(§2) 2×10^5 cells were seeded on a 96-well plate. After 24 hours, each of the drugs was treated in a dose dependent manner, and incubated after 72 hours, a 15 μL MTT reagent reacted for 4 hours, and then 100 μL 10% SDS was added and incubated for 24 hours. […] MTT result analysis measured the IC50 values through prism software.

ALK (L1196M) = ALK (L1196M) (Homo sapiens, UniProt Q9UM73, L1196M); experiment: Kinase inhibitory activity (33P-ATP filter-binding, scintillation counting); type: biochemical
Protocol: (§3) The measurement of the kinase inhibitory activity was performed in the following method.
(§4) 2. An evaluation compound (DMSO solution) and Mg/ATP were added to perform the reaction.
(§5) 3. After about 40 minutes at room temperature, 10 μL of 0.5% phosphoric acid was added to complete the reaction.
(§6) 4. The reaction solution was divided by 0.5% 10 μL and spotted on a P30 filtermat.
(§7) 5. […] The reaction solution was washed once with methanol and then dried and analyzed with scintillation counting to measure IC50 values.

EGFR (del19/L858R/T790M) = EGFR (del19/L858R/T790M) (Homo sapiens, UniProt P00533, T790M, form not given); experiment: as above; type: biochemical
Protocol: as §3, §4, §5, §6, §7

EGFR (del19/T790M/C797S) = EGFR (del19/T790M/C797S) (Homo sapiens, UniProt P00533, C797S/DEL746-750/T790M); experiment: as above; type: biochemical
Protocol: as §3, §4, §5, §6, §7

H3122 (EML4-ALK v1) = experiment: Cancer cell growth inhibitory effect (MTT assay); type: cell-based; details: Homo sapiens, NCI-H3122, 72 hours, read-out: H3122 cell growth inhibition IC50
Protocol: as §1, §2

H2228 (EML4-ALK v3) = experiment: Cancer cell growth inhibitory effect (MTT assay); type: cell-based; details: Homo sapiens, NCI-H2228, 72 hours, read-out: H2228 cell growth inhibition IC50
Protocol: as §1, §2

Row | SMILES | IC50 [1] | IC50 (ALK (L1196M)) | IC50 (EGFR (del19/L858R/T790M)) | IC50 (EGFR (del19/T790M/C797S)) | IC50 (H3122 (EML4-ALK v1)) | IC50 (H2228 (EML4-ALK v3))
1 | COc1cc(N2CCOCC2)c(-c2cnn(C)c2)cc1Nc1ncc(Cl)c(Nc2ccccc2N(C)S(C)(=O)=O)n1 [Example 1, N-(2-((5-chloro-2-((2-methoxy-5-(1-methyl-1H-pyrazol-4-yl)-4-morpholinophenyl)amino)pyrimidine-4-yl)amino)phenyl)-N-methylmethanesulfonamide] | < 100 nM | < 50 nM | < 50 nM | < 50 nM | 50 to 100 nM | < 100 nM
2 | COc1cc(N2CCOCC2)c(-c2cnn(C)c2)cc1Nc1ncc(Cl)c(Nc2ccccc2NS(C)(=O)=O)n1 [Example 2, N-(2-((5-chloro-2-((2-methoxy-5-(1-methyl-1H-pyrazol-4-yl)-4-morpholinophenyl)amino)pyrimidine-4-yl)amino)phenyl)methanesulfonamide] | – | < 50 nM | – | – | 50 to 100 nM | < 100 nM
3 | COc1cc(N2CCSCC2)c(-c2cnn(C)c2)cc1Nc1ncc(Cl)c(Nc2ccccc2N(C)S(C)(=O)=O)n1 [Example 3] | < 100 nM | < 50 nM | < 50 nM | < 50 nM | 50 to 100 nM | < 100 nM
4 | COc1cc(N2CCN(C)CC2)c(-c2cnn(C)c2)cc1Nc1ncc(Cl)c(Nc2ccccc2N(C)S(C)(=O)=O)n1 [Example 4] | 50 to 100 nM | < 50 nM | < 50 nM | 50 to 100 nM | 50 to 100 nM | 50 to 100 nM
5 | COc1cc(N2CC3(COC3)C2)c(-c2cnn(C)c2)cc1Nc1ncc(Cl)c(Nc2ccccc2N(C)S(C)(=O)=O)n1 [Example 5, N-(2-((5-chloro-2-((2-methoxy-5-(1-methyl-1H-pyrazol-4-yl)-4-(2-oxa-6-azaspiro[3.3]heptane-6-yl)phenyl)amino)pyrimidine-4-yl)amino)phenyl)-N-methylmethanesulfonamide] | < 100 nM | < 50 nM | < 50 nM | < 50 nM | 50 to 100 nM | < 100 nM
6 | COc1cc(N2CC3(CN(C)C3)C2)c(-c2cnn(C)c2)cc1Nc1ncc(Cl)c(Nc2ccccc2N(C)S(C)(=O)=O)n1 [Example 6, N-(2-((5-chloro-2-((2-methoxy-5-(1-methyl-1H-pyrazol-4-yl)-4-(6-methyl-2,6-diazaspiro[3.3]heptane-2-yl)phenyl)amino)pyrimidine-4-yl)amino)phenyl)-N-methylmethanesulfonamide] | 50 to 100 nM | < 50 nM | < 50 nM | 50 to 100 nM | 50 to 100 nM | 50 to 100 nM
7 | COc1cc(N2CCSCC2)c(-c2cnn(C)c2)cc1Nc1ncc(Cl)c(Nc2ccccc2NS(C)(=O)=O)n1 [Example 7, N-(2-((5-chloro-2-((2-methoxy-5-(1-methyl-1H-pyrazol-4-yl)-4-thiomorpholinophenyl)amino)pyrimidine-4-yl)amino)phenyl)methanesulfonamide] | < 100 nM | < 50 nM | < 50 nM | < 50 nM | 50 to 100 nM | < 100 nM
8 | COc1cc(N2CCN(C)CC2)c(-c2cnn(C)c2)cc1Nc1ncc(Cl)c(Nc2ccccc2NS(C)(=O)=O)n1 [Example 8, N-(2-((5-chloro-2-((2-methoxy-5-(1-methyl-1H-pyrazol-4-yl)-4-(4-methylpiperazine-1-yl)phenyl)amino)pyrimidine-4-yl)amino)phenyl)methanesulfonamide] | 50 to 100 nM | < 50 nM | 50 to 100 nM | 50 to 100 nM | > 500 nM | > 500 nM
9 | COc1cc(N2CC3(COC3)C2)c(-c2cnn(C)c2)cc1Nc1ncc(Cl)c(Nc2ccccc2NS(C)(=O)=O)n1 [Example 9, N-(2-((5-chloro-2-((2-methoxy-5-(1-methyl-1H-pyrazol-4-yl)-4-(2-oxa-6-azaspiro[3.3]heptane-6-yl)phenyl)amino)pyrimidine-4-yl)amino)phenyl)methanesulfonamide] | < 100 nM | < 50 nM | < 50 nM | < 50 nM | 50 to 100 nM | 50 to 100 nM
10 | COc1cc(N2CC3(CN(C)C3)C2)c(-c2cnn(C)c2)cc1Nc1ncc(Cl)c(Nc2ccccc2NS(C)(=O)=O)n1 [Example 10, N-(2-((5-chloro-2-((2-methoxy-5-(1-methyl-1H-pyrazol-4-yl)-4-(6-methyl-2,6-diazaspiro[3.3]heptane-2-yl)phenyl)amino)pyrimidine-4-yl)amino)phenyl)methanesulfonamide] | 50 to 100 nM | < 50 nM | 50 to 100 nM | 50 to 100 nM | > 500 nM | > 500 nM
11 | C=CC(=O)Nc1cc(Nc2nccc(-c3cn(C)c4ccccc34)n2)c(OC)cc1N(C)CCN(C)C [Osimertinib, osimertinib, reference compound] | – | 50 to 100 nM | – | – | > 500 nM | > 500 nM
